Test results: patent US5162317A, “Pyridinium salt and pharmacological composition containing the same” (Esai Co., Ltd., priority 1988, dated 1992)

biological target: T1, H^+ --K^+ ATPase (Sus scrofa, UniProt P19156); test: Inhibition effect on H^+ --K^+ ATPase activity; assay type: biochemical; details: H^+ --K^+ ATPase from fresh swine gastric mucosa, 10 μg protein/ml, pH 7.40, 37° C., 30 minutes incubation; compound dissolved in methanol
T1 construct: prepared from the fundus ventriculi gland of fresh swine gastric mucosa; from tissue; host or cells: swine gastric mucosa, fundus ventriculi gland (modified method of Saccomani et al. 1977)
Description: Inhibition effect on H^+ --K^+ ATPase activity
(1) Preparation of H^+ --K+ATPase
The enzyme H^+ --K+ATPase was prepared from the fundus ventriculi gland of fresh swine gastric mucosa by a modified method of Saccomani et al. (Biochem. and Biophys. Acta., 464, 313 (1977)).
(2) Determination of H^+ --K^+ ATPase activity
(§1) Various concentrations of the compounds of the present invention were incubated together with 10 μg protein/ml of the H^+ --K^+ ATPase in a 40 mM Tris HCl buffer (pH 7.40) at 37° C. for 30 minutes. Then 15 mM KCl was added thereto. Ten minutes thereafter, an ATPase reaction between 3 mM of MgCl2 and ATP was started. Ten minutes thereafter, the liberated inorganic phosphoric acid was determined according to Yoda and Hokin's method (cf. Biochem. Biophys. Res., Com., 40, 880 (1970)).
The test compound was 3-(3-methoxy)propoxy-4-methyl-5H-pyrido[1'.2':4.5][1.2.4.]thiazino[2.3-a]- benzimidazol-13-ium tetrafluoroborate (the compound of Example 1). This compound was dissolved in methanol prior to the test.
The inhibition effect (%) was calculated by dividing the difference between the data of the test group and that of the control group, to which solvent was added exclusively, by the data of the control group.
(1) Preparation of H^+ --K^+ ATPase
The enzyme H^+ --K^+ ATPase was prepared from the fundus ventriculi gland of fresh swine gastric mucosa by a modified method of Saccomani et al. (Biochem. and Biophys. Acta., 464, 313 (1977)).
as §1, with “H+--K^+” for “H^+ --K^+”, “MgCl” for “MgCl2”
The test compound was 2-[2-(ethyldithiomethyl)4-(3-methoxy)propoxy-3-methyl-1-pyridinio)benzimidazolide (the compound of Example 1). […]

T1 sequence (P19156 2-1034 limits assumed): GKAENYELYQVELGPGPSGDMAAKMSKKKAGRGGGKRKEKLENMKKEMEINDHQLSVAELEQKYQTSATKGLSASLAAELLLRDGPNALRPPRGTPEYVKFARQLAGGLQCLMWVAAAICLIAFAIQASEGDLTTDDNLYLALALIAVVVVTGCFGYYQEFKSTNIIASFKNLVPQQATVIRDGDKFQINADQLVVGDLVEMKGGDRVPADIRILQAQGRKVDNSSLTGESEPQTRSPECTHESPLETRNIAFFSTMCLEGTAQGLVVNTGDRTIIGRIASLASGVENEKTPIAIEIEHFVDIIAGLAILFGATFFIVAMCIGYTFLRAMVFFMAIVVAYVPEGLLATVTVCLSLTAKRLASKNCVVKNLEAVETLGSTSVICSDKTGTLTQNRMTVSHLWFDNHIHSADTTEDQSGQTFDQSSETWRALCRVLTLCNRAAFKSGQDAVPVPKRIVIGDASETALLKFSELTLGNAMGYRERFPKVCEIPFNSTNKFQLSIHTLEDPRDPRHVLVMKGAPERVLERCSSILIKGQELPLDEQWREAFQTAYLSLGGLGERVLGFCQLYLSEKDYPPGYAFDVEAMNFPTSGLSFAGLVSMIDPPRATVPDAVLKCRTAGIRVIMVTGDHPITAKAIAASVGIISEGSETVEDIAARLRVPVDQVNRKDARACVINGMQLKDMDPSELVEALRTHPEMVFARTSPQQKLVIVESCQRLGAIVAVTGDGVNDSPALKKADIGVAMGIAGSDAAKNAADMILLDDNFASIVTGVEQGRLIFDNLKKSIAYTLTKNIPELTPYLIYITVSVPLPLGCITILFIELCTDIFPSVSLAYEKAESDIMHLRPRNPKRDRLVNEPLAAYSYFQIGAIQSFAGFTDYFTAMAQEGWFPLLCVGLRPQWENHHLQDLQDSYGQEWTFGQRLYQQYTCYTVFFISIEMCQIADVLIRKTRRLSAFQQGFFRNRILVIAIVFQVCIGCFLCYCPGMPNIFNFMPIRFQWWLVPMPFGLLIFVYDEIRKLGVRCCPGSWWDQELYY
T1 sequence (P18434 whole entry partner): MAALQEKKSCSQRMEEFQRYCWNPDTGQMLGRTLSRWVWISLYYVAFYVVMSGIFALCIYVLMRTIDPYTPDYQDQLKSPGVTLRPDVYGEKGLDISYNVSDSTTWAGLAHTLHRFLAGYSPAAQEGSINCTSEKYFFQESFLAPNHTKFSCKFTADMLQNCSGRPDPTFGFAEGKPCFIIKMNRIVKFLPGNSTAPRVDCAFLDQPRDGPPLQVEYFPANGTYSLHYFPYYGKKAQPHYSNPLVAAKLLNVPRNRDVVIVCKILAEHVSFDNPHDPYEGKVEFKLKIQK

Structure (SMILES)	IC50
COc1ccc2[nH]c([S+]([O-])Cc3ncc(C)c(OC)c3C)nc2c1 (stereo not drawn) [Omeprazole, reference compound]	11 µM
COCCCOc1cc[n+]2c(c1C)CSn1c-2nc2ccccc21 [Example 1, 3-(3-Methoxy)propoxy-4-methyl-5H-pyrido[1'.2':4.5][1.2.4]thiaziano[2.3-a]benzimidazol-13-ium tetrafluoroborate]	0.44 µM
CCSSCc1c(C)c(OCCCOC)cc[n+]1-c1nc2ccccc2[n-]1 [Example 12, 2-[2-(Ethyldithiomethyl)-4-(3-methoxy)propoxy-3-methyl-1pyridinio]benzimidazolide]	> 10 µM
